Among the test systems are 786-0 renal; UACC-62 melanoma; RXF 393 renal; A549 NSCLC; OVCAR-8 ovarian; UO-31 renal; HCT-116 colon; BT-549 breast; M14 melanoma; MALME-3M melanoma; SNB-19 CNS; HCT-15 colon; T-47D breast; NCI-H23 lung; HCC-2998 colon; SK-OV-3 ovarian; HS 578T breast; SF-295 CNS; SK-MEL-2 melanoma; SNB-75 CNS.
What all share (assay): inhibition of tumour cell growth, NCI panel, 48 h

Among the data in PubChem BioAssay (NCI) are TGI values, retold here.

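How tested: cells in 96-well plates exposed to compound for 48 hours at five concentrations. At the TGI there is no net growth.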

As to `COc1ccc(/[N+]([O-])=C/c2ccc(OC(=S)S)c(OC)c2)cc1`, the TGI is more than 100 µM in the assay with 786-0 renal; more than 100 µM in the assay on UACC-62 melanoma; 50.9 µM in the assay on RXF 393 renal; more than 100 µM in the assay on A549 NSCLC; more than 100 µM with OVCAR-8 ovarian; more than 100 µM in the assay with UO-31 renal. The TGI in the assay on HCT-116 colon was more than 100 µM; with BT-549 breast, 79.7 µM; with M14 melanoma, more than 100 µM; in the assay with MALME-3M melanoma, more than 100 µM; in the assay on SNB-19 CNS, more than 100 µM; with HCT-15 colon, more than 100 µM. Moreover, the TGI is 99.5 µM with T-47D breast; more than 100 µM in the assay with NCI-H23 lung; more than 100 µM in the assay on HCC-2998 colon; more than 100 µM in the assay with SK-OV-3 ovarian; more than 100 µM in the assay on HS 578T breast; more than 100 µM in the assay on SF-295 CNS. In addition, the TGI is more than 100 µM with SK-MEL-2 melanoma and 51.1 µM in the assay with SNB-75 CNS.

Regarding `COc1ccc(/C=C2\N=C(N3CCCC(CO)C3)NC2=O)cc1` (stereo not given), the TGI in the assay on 786-0 renal, in the assay on UACC-62 melanoma, in the assay on RXF 393 renal, in the assay with A549 NSCLC, with OVCAR-8 ovarian and with UO-31 renal was more than 100 µM in each case. For the same compound, the TGI in the assay on HCT-116 colon, in the assay on BT-549 breast, with M14 melanoma, in the assay on MALME-3M melanoma, in the assay on SNB-19 CNS and with HCT-15 colon was more than 100 µM in each case. Moreover, the TGI in the assay with T-47D breast, in the assay with NCI-H23 lung, in the assay with HCC-2998 colon, with SK-OV-3 ovarian, in the assay with HS 578T breast and in the assay with SF-295 CNS was more than 100 µM throughout. Besides, the TGI in the assay on SK-MEL-2 melanoma and with SNB-75 CNS was more than 100 µM in each case.

`O=C(OC1=CCN(Br)C1=O)C1=C(O)C(=O)N(Br)C1`: the TGI in the assay on 786-0 renal was 30.4 µM; in the assay on UACC-62 melanoma it was 36.3 µM; with RXF 393 renal, 38.5 µM; in the assay with A549 NSCLC, more than 100 µM; in the assay on OVCAR-8 ovarian, more than 100 µM; in the assay on UO-31 renal, more than 100 µM. The TGI in the assay on HCT-116 colon is 35.6 µM; with BT-549 breast it was 46 µM; with M14 melanoma, more than 100 µM; in the assay on MALME-3M melanoma it was more than 100 µM; in the assay with SNB-19 CNS, 43.6 µM; in the assay with HCT-15 colon, more than 100 µM. Further, the TGI in the assay on T-47D breast was 45.2 µM; in the assay with NCI-H23 lung, more than 100 µM; in the assay with HCC-2998 colon it was more than 100 µM; in the assay with SK-OV-3 ovarian it was 71.2 µM; with HS 578T breast it was more than 100 µM; in the assay on SF-295 CNS, 69.7 µM. Further, the results for the TGI in the assay on SK-MEL-2 melanoma and in the assay with SNB-75 CNS were more than 100 µM and 61.3 µM, respectively.

For the compound `O=C(Nc1ccccc1)N(CCN(Cc1ccccc1)C(=O)Nc1ccccc1)CCN(Nc1ccccc1)C(=O)Nc1ccccc1`, the TGI in the assay on 786-0 renal, with UACC-62 melanoma, with RXF 393 renal, in the assay with A549 NSCLC, in the assay with OVCAR-8 ovarian and in the assay with UO-31 renal was more than 100 µM in each case. Besides, the TGI in the assay on HCT-116 colon, with BT-549 breast, with M14 melanoma, in the assay with MALME-3M melanoma, in the assay with SNB-19 CNS and in the assay on HCT-15 colon was more than 100 µM throughout. Also, the TGI in the assay with T-47D breast, in the assay with NCI-H23 lung, in the assay on HCC-2998 colon, in the assay with SK-OV-3 ovarian, in the assay with HS 578T breast and in the assay on SF-295 CNS was more than 100 µM in each case. The TGI in the assay with SK-MEL-2 melanoma and in the assay on SNB-75 CNS was more than 100 µM throughout.

Consider `Cc1ccc(S(=O)(=O)n2cc(C=O)c(-c3cn(S(=O)(=O)c4ccc(C)cc4)cc3-c3cn(S(=O)(=O)c4ccc(C)cc4)cc3C=O)c2)cc1`, for which the TGI in the assay on 786-0 renal, in the assay on UACC-62 melanoma, in the assay on RXF 393 renal, in the assay with A549 NSCLC, with OVCAR-8 ovarian and with UO-31 renal was more than 100 µM in each case. In addition, the TGI in the assay with HCT-116 colon, in the assay with BT-549 breast, in the assay with M14 melanoma, with MALME-3M melanoma, in the assay with SNB-19 CNS and in the assay with HCT-15 colon was more than 100 µM each time. For the same compound, the TGI in the assay on T-47D breast, with NCI-H23 lung, in the assay with HCC-2998 colon, in the assay with SK-OV-3 ovarian, with HS 578T breast and in the assay with SF-295 CNS was more than 100 µM throughout. In addition, the TGI in the assay on SK-MEL-2 melanoma and with SNB-75 CNS was more than 100 µM throughout.

As to `CCOP(=O)(OCC)Oc1c(OC)c2[nH]c(C(=O)OC)cc2c2c(C(=O)O)c[nH]c12`, the TGI in the assay with 786-0 renal, in the assay on UACC-62 melanoma, in the assay with RXF 393 renal, in the assay with A549 NSCLC, with OVCAR-8 ovarian and in the assay with UO-31 renal was more than 100 µM throughout. Moreover, the TGI in the assay on HCT-116 colon, in the assay on BT-549 breast, with M14 melanoma, with MALME-3M melanoma, in the assay with SNB-19 CNS and with HCT-15 colon was more than 100 µM throughout. Also, the TGI in the assay with T-47D breast, in the assay with NCI-H23 lung, in the assay with HCC-2998 colon, in the assay on SK-OV-3 ovarian, in the assay on HS 578T breast and in the assay with SF-295 CNS was more than 100 µM each time. In addition, the TGI in the assay on SK-MEL-2 melanoma and in the assay with SNB-75 CNS was more than 100 µM throughout.

For `Nc1ncnc2c1ncn2[C@H]1C=C[C@@H](NO)C1`, the TGI with 786-0 renal, in the assay on UACC-62 melanoma, with RXF 393 renal, in the assay with A549 NSCLC, in the assay on OVCAR-8 ovarian and in the assay with UO-31 renal was more than 100 µM throughout. The TGI with HCT-116 colon, in the assay on BT-549 breast, in the assay on M14 melanoma, in the assay on MALME-3M melanoma, with SNB-19 CNS and with HCT-15 colon was more than 100 µM in each case. Also, the TGI in the assay with T-47D breast, in the assay with NCI-H23 lung, in the assay with HCC-2998 colon, in the assay with SK-OV-3 ovarian, in the assay on HS 578T breast and in the assay with SF-295 CNS was more than 100 µM in each case. For the same compound, the TGI in the assay on SK-MEL-2 melanoma and in the assay on SNB-75 CNS was more than 100 µM throughout.
